From paper PMC4084896 (PLoS ONE, 2014) come the findings set out here.

For data set [1], the system named is CYP1A1 mRNA. The settings on record: HepG2, TCDD 5 nM, 24 h, vs vehicle.
For the next data set, the system named is CYP1A2 mRNA. In words: in vitro. The settings on record: human, 24 h. The text has this: (§1) Primary human hepatocytes used in this study were obtained from two sources: (i) from multiorgan donors LH52 (female; 60 years) and LH54 (person), when: a) Tissue acquisition protocol was in accordance with the requirements issued by “Ethical Committee of the Faculty Hospital Olomouc, Czech Republic” and with Transplantation law #285/2002 Sb., b) “Ethical Committee of the Faculty Hospital Olomouc, Czech Republic” approved the study and the use of primary human hepatocytes for research presented in the current paper., c) The consent from the next of kin of the donor was waived by “Ethical Committee of the Faculty Hospital Olomouc, Czech Republic”; (ii) long-term human hepatocytes in monolayer Batch HEP220770 (person), Batch HEP220774 (person) (purchased from Biopredic International, Rennes, France). Cells were cultured in serum-free medium. Cultures were maintained at 37°C and 5% CO2 in a humidified incubator.
(§2) Total RNA was isolated using TRI Reagent (Molecular Research Center, Cincinnati, OH, USA). cDNA was synthesized from 1000 ng of total RNA using M-MLV Reverse Transcriptase (Finnzymes, Espoo, Finland) at 42°C for 60 min in the presence of random hexamers (Takara, Shiga, Japan). qRT-PCR was carried out using LightCycler FastStart DNA MasterPLUS SYBR Green I (Roche Diagnostic Corporation, Prague, Czech Republic) on a Light Cycler 480 II apparatus (Roche Diagnostic Corporation). CYP1A1, CYP1A2, tyrosine aminotransferase (TAT) and GAPDH mRNAs were determined as described previously, [16]. Measurements were performed in triplicates. Gene expression was normalized to GAPDH as a housekeeping gene.

The test system of data set [2] is CYP1A1 mRNA. In words: in vitro. The settings on record: human, 24 h.
Excerpt: as §1, §2

A further data set deals with CYP1A1 protein. In words: CYP1A1 protein in primary human hepatocytes (western blot). The class given is cell-based. The settings on record: cultures HH52, HH54, Hep220770, 48 h. As to the method:
Cells were cultured in serum-free medium.
Total protein extracts were prepared from cells on 6-well plates. Cells were washed twice with ice-cold PBS and scraped into 1 ml of PBS. The suspension was centrifuged (4500 RPM/5 min/4°C) and the pellet was resuspended in 150 µl of ice-cold lysis buffer (150 mM NaCl; 10 mM Tris pH 7.2; 0.1% (w/v) SDS; anti-protease cocktail, 1% (v/v) Triton X-100; anti-phosphatase cocktail, 1% (v/v) sodium deoxycholate; 5 mM EDTA). The mixture was vortexed and incubated for 10 min on ice and then centrifuged (15000 RPM/13 min/4°C). Supernatant was collected and the protein content was determined by the Bradford reagent. SDS–PAGE gels (10%) were run on a BioRad apparatus according to the general procedure followed by the protein transfer onto PVDF membrane. The membrane was saturated with 5% non-fat dried milk for 1 h at room temperature. Blots were probed with primary antibodies against CYP1A1 (goat polyclonal, sc-9828, G-18, dilution 1∶500), CYP1A2 (mouse monoclonal, sc-374228, G-4, dilution 1∶2000), actin (goat polyclonal; sc-1616, 1–19, dilution 1∶2000), all purchased from Santa Cruz Biotechnology (Santa Cruz, CA, USA). Chemiluminescent detection was performed using horseradish peroxidase-conjugated secondary antibodies (Santa Cruz Biotechnology) and Western blotting Luminol kit (Santa Cruz Biotechnology).
On the technique in general: Immunoblotting shows a protein as a band on a membrane.

The subject of data set [3] is CYP1A1/1A2 catalytic activity (EROD). In words: EROD assay in primary human hepatocytes. It counts as cell-based. The settings on record: culture Hep220774, TCDD 5 nM, 24 h. As to the method:
Cells were treated for 24 h with tested compounds.
The cells were treated for 24 h with (+)-KET, (−)-KET and commercial rac-KET (1 µM, 30 µM, 50 µM), and with TCDD (5 nM) and vehicle (DMSO; 0.1% V/V). […] In the cytotoxicity assay, we found all forms of KET highly toxic against human hepatocytes at the concentration 50 µM.

For data set [4], the target named is T1, aryl hydrocarbon receptor AhR (Homo sapiens, UniProt P35869).
T1 construct: endogenous in cells; host or cells: AZ-AHR (stably transfected reporter line derived from HepG2)
T1 sequence (P35869 11-848): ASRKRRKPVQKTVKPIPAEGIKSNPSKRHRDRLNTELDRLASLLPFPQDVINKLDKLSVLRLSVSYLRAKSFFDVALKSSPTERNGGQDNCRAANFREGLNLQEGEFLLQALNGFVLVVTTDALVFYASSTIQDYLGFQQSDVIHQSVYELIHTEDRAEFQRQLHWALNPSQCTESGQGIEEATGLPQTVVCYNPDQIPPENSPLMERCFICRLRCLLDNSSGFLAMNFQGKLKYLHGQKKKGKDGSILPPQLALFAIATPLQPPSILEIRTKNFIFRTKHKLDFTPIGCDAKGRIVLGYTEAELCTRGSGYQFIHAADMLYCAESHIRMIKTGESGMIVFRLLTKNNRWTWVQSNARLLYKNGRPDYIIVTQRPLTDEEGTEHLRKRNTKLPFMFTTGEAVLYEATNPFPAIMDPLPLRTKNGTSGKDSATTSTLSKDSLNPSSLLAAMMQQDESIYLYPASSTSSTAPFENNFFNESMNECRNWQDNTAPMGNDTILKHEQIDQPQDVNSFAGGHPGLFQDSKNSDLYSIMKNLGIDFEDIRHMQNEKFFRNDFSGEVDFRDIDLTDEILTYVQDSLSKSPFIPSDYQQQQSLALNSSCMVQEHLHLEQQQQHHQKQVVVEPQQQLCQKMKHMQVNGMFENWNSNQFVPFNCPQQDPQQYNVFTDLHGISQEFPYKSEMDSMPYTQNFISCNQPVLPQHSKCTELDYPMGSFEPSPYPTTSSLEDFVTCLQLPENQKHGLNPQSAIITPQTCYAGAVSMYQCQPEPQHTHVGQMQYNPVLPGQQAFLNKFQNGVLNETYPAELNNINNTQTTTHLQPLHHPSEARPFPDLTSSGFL
In words: AhR gene reporter assay in AZ-AHR cells, agonist mode. It counts as cell-based. The settings on record: 5 nM TCDD, four passages. The text has this: A stably transfected gene reporter cell line AZ-AHR, derived from human hepatoma HepG2 cells transfected with a construct containing several AhR binding sites upstream of a luciferase reporter gene, was used for assessment of AhR transcriptional activity. A stably transfected gene reporter cell line AZ-GR, derived from human cervix carcinoma HeLa cells transfected with a construct containing several GR response elements upstream of a luciferase reporter gene, was used for assessment of GR transcriptional activity. Cells were incubated for 24 h with tested compounds and/or vehicle (DMSO; 0.1% v/v), in the presence or absence of TCDD (5 nM; AZ-AHR cells) or DEX (100 nM; AZ-GR cells). After the treatments, cells were lysed and luciferase activity was measured. In parallel, cell viability was determined by conventional MTT test.
Gene reporter assays were performed in two different experimental layouts. In agonist mode, cells were treated with increasing concentrations of tested compounds, and the half-maximal effective concentrations (EC50) were calculated.
(Reporter assays use an easily measured gene product as a stand-in for the process of interest.)

[5] abbreviates: female, culture HH52, TCDD 5 nM.
Where [6] appears, read: female, culture Hep220770, TCDD 5 nM.

SMILES strings stand for the structures.

What is called fold induction is the signal under treatment as a multiple of the control signal. `Clc1cc2c(cc1Cl)Oc1cc(Cl)c(Cl)cc1O2` [TCDD, 2,3,7,8-tetrachlorodibenzo-p-dioxin]: the “CYP1A1 mRNA induction” value with CYP1A1 mRNA [1] is “approximately 500 fold”. The fold induction was found to be 79 in the data set on CYP1A2 mRNA (setting [5]); 219 in the data set with CYP1A2 mRNA (setting [6]); 30 in the data set with CYP1A2 mRNA (male, culture HH54, TCDD 5 nM); 53 with CYP1A1 mRNA [2] (setting [5]); 1840 with CYP1A1 mRNA [2] (setting [6]); 101 in the data set with CYP1A1 mRNA [2] (male, culture HH54, TCDD 5 nM). The “CYP1A1 protein induction (in words)” value with CYP1A1 protein was “drastic increase”. The “induction of EROD activity” value in data set [3] is on record as “approximately 15 fold”. Besides, the “average induction of AhR-dependent luciferase activity” value in data set [4] is 435 fold.
